Reference: ChEMBL document CHEMBL2010742, “Phaeosphaerins A-F, cytotoxic perylenequinones from an endolichenic fungus, Phaeosphaeria sp” (J Nat Prod, 2012)
pIC50: −log10 of the molar value. Active and inactive are the calls of the source. The calls are words filed in the database; no cut-off is given here.

How the values were obtained:
[1] = tested on: LNCaP; experiment: Cytotoxicity against human LNCAP cells after 24 hrs by MTT assay; assay type: functional, cell-based
[2] = tested on: DU-145; experiment: Cytotoxicity against human DU145 cells after 24 hrs by MTT assay; assay type: functional, cell-based; settings: DU-145, 24 h
[3] = tested on: PC-3; experiment: Cytotoxicity against human PC3 cells after 24 hrs by MTT assay; assay type: functional, cell-based; settings: PC-3, 24 h
[4] = Drug uptake in human MCF7 cell lysosomes at 20 uM after 10 mins by […] staining-based confocal microscopic analysis; assay type: ADME, Lysosome; settings: mcf7, 10 min
[5] = tested on: K562; experiment: Cytotoxicity against human K562 cells after 24 hrs by MTT assay; assay type: functional, cell-based; settings: K562, 24 h
[6] = tested on: K562; experiment: Cytotoxicity against human K562 cells treated for 4 hrs followed irradiated with […] light for 1000 seconds by MTT assay; assay type: functional, cell-based; settings: K562, light or radiation study
[7] = tested on: K562; experiment: Induction of ROS production in human K562 cells at 10 uM after 3 hrs by DCF fluorescence analysis; assay type: functional, cell-based

SMILES | pIC50 [1] | pIC50 [2] | pIC50 [3] | Drug uptake [4] | pIC50 [5] | pIC50 [6] | Activity [7]
COC1=C2c3c4c5c(c(O)cc(OC)c5c5c(OC)cc(O)c(c35)C1=O)C(=O)[C@@H](OC)[C@@]41C[C@H](C)O[C@]2(O)[C@]1(C)O [PHAEOSPHAERIN D] | 4.60 | 4.69 | 5.01 | – | – | – | –
COC1=C2c3c4c5c(c(O)cc(OC)c5c5c(OC)cc(O)c(c35)C1=O)C(=O)[C@@]1(OC)O[C@@H](C)C[C@@]41[C@H]2C(C)=O [PHAEOSPHAERIN A] | 4.97 | 4.97 | 5.23 | – | – | – | –
COc1cccc2c1C(=O)c1c(O)c3c(c(O)c1C2=O)C[C@@](O)(C(=O)CO)C[C@@H]3O[C@H]1C[C@H](N)[C@H](O)[C@H](C)O1 [DOXORUBICIN] | 4.80 | 4.63 | 4.71 | – | – | – | –
COC1=C2c3c4c5c(c(O)cc(OC)c5c5c(OC)cc(O)c(c35)C1=O)C(=O)[C@H](OC)[C@]41C[C@H](C)O[C@@]2(C(C)=O)O1 [PHAEOSPHAERIN E] | 5.00 | 4.79 | 5.28 | – | – | – | –
COC1=C2c3c4c5c(c(O)cc(OC)c5c5c(OC)cc(O)c(c35)C1=O)C(=O)[C@@H](OC)[C@@]41C[C@H](C)O[C@@]21C(C)=O [PHAEOSPHAERIN B] | 5.57 | 5.02 | 5.62 | – | – | – | –
COC1=C2c3c4c5c(c(O)cc(OC)c5c5c(OC)cc(O)c(c35)C1=O)C(=O)[C@@H](OC)[C@]4(CC(C)O)[C@@H]2C(C)=O (some centres undefined) [PHAEOSPHAERIN C] | 4.84 | 4.82 | 5.21 | Active | 4.71 | 5.15 | Active
COC1=C2c3c4c5c(c(O)cc(OC)c5c5c(OC)cc(O)c(c35)C1=O)C(=O)[C@@H](OC)[C@@]41C[C@H](C)O[C@]2(C(C)=O)O1 [PHAEOSPHAERIN F] | 4.93 | 4.78 | 5.26 | – | – | – | –
COc1c2c3c4c(c(OC)c(=O)c5c(O)cc(OC)c(c6c(OC)cc(O)c(c1=O)c63)c54)[C@@H](C(C)=O)[C@@](C)(O)C2 [HYPOCRELLIN A] | – | – | – | Active | 5.13 | 6.26 | Active
